The record followed here is patent publication US20160039825A1 (BIOGEN MA INC., priority 2013, published 2016).

This assay concerns the target T1, Human ATX protein (Homo sapiens, UniProt Q13822).
T1 construct: made in house
In words: Autotaxin (ATX) assay, FRET with FS-3 substrate. Format: biochemical. The note with it: upper bound bins (no greater than 100, 250 or 500 nM); FS-3 2 μM, ATX 1.0 μg/mL. A digest of the protocol:
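In-house human ATX (1.0 μg/mL final) was preincubated with compound for 30 min at room temperature in Tris buffer pH 7.4 with NaCl, KCl, CaCl2, MgCl2 and 1 mg/mL fatty acid-free BSA. FS-3 (2 μM final) was added and the plate shaken 2 h at room temperature in the dark. Fluorescence was read at ex 485/em 538 nm.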
Consider `CC(N)c1cc2n(n1)CCN(C(=O)OCc1cc(C(F)(F)F)cc(C(F)(F)F)c1)C2` (centres unmarked) [Example 395, 3,5-bis(Trifluoromethyl)benzyl 2-(1-aminoethyl)-6,7-dihydropyrazolo[1,5-a]pyrazine-5(4H)-carboxylate], for which the IC50 is at most 100 nM.

In the case of `O=C(OCc1cc(Cl)cc(C(F)(F)F)c1)N1CCCn2nc(C3CN4CCC[C@H]4CO3)cc2C1` (mixture of isomers) [Example 251, 3-Chloro-5-(trifluoromethyl)benzyl 2-((8aS)-hexahydro-1H-pyrrolo[2,1-c][1,4]oxazin-3-yl)-7,8-dihydro-4H-pyrazolo[1,5-a][1,4]diazepine-5(6H)-carboxylate], the half-maximal inhibitory concentration (IC50) was at most 100 nM. The value for `CN1CCN(C(=O)c2cc3n(n2)CCN(C(=O)OCc2cc(C(F)(F)F)cc(C(F)(F)F)c2)C3)CC1` [Example 489] was at most 100 nM; that for `CC(C)(C)OC(=O)N1CCC(c2cc3n(n2)CCN(C(=O)OCc2cc(C(F)(F)F)cc(C(F)(F)F)c2)C3)CC1` [Example 398, 3,5-bis(trifluoromethyl)benzyl 2-(1-(tert-butoxycarbonyl)piperidin-4-yl)-6,7-dihydropyrazolo[1,5-a]pyrazine-5(4H)-carboxylate] was at most 100 nM; that for `CC1(C)C(NCc2cc3n(n2)CCCN(C(=O)OCc2cc(C(F)(F)F)cc(C(F)(F)F)c2)C3)CC1C(=O)O` (centres unmarked) [Example 287, 3-(((5-(((3,5-bis(trifluoromethyl)benzyl)oxy)carbonyl)-5,6,7,8-tetra-hydro-4H-pyrazolo[1,5-a][1,4]diazepin-2-yl)methyl)amino)-2,2-dimethylcyclo-butanecarboxylic acid] was at most 500 nM. Next, `CC1c2cc(C(=O)O)nn2CCCN1C(=O)CCc1cc(Cl)cc(Cl)c1` (centres unmarked) [Example 420]: at most 500 nM; `O=C(OCc1cc(Cl)cc(C(F)(F)F)c1)N1CCCn2nc(C(=O)N3CCNCC34CC4)cc2C1` [Example 210]: at most 100 nM. For `O=C(OCc1cc(C(F)(F)F)cc(C(F)(F)F)c1)N1CCCn2nc(CNC3CC3)cc2C1` [Example 513], the IC50 was at most 250 nM.

As for `O=C(OCc1cc(C(F)(F)F)cc(C(F)(F)F)c1)N1CCCn2nc(C(=O)N3CCNCC34CC4)cc2C1` [Example 219], the half-inhibitory concentration (IC50) was at most 100 nM.

As for `O=C(OCc1cc(C(F)(F)F)cc(C(F)(F)F)c1)N1CCn2c(nnc2C(F)(F)F)C1` [Example 134, 3,5-Bis(trifluoromethyl)benzyl 3-(trifluoromethyl)-5,6-dihydro-[1,2,4]triazolo[4,3-a]pyrazine-7(8H)-carboxylate], the IC50 was at most 500 nM. Next, `O=C(O)C1CC2CCCC(C1)N2C(=O)c1cc2n(n1)CCN(C(=O)OCc1cccc(C(F)(F)F)c1)C2` (centres unmarked) [Example 43, 9-(5-(((3-(Trifluoromethyl)benzyl)oxy)carbonyl)-4,5,6,7-tetrahydropyrazolo[1,5-a]pyrazine-2-carbonyl)-9-azabicyclo[3.3.1]nonane-3-carboxylic acid]: at most 100 nM; `CCOC(=O)c1cc2n(n1)CCCN(C(=O)OCc1cc(C(F)(F)F)cc(C(F)(F)F)c1)C2` [Example 2, 5-(3,5-Bis(trifluoromethyl)benzyl) 2-ethyl 7,8-dihydro-4H-pyrazolo[1,5-a][1,4]diazepine-2,5(6H)-dicarboxylate]: at most 100 nM. The value for `O=C(O)C1CCN(C(=O)c2cc3n(n2)CCN(C(=O)OCc2cc(C(F)(F)F)cc(C(F)(F)F)c2)C3)CC1` [Example 418] was at most 100 nM. The value for `O=C(O)C1CN(C(=O)c2cc3n(n2)CCCN(C(=O)OCc2cc(Cl)cc(C(F)(F)F)c2)C3)CCN1` (centres unmarked) [Example 227] was at most 100 nM.

For the compound `O=C(OCc1cc(C(F)(F)F)cc(C(F)(F)F)c1)N1CCCn2nc(C3=CCNCC3)cc2C1` [Example 373, 3,5-bis(trifluoromethyl)benzyl 2-(1,2,3,6-tetrahydropyridin-4-yl)-7,8-dihydro-4H-pyrazolo[1,5-a][1,4]diazepine-5(6H)-carboxylate], the IC50 was at most 100 nM. `O=C(OCc1cc(Cl)cc(C(F)(F)F)c1)N1CCCn2nc(C(=O)N3C[C@@H]4C[C@H]3CN4)cc2C1` [Example 204] had an IC50 of at most 100 nM. For the compound `O=C(OCc1cc(C(F)(F)F)cc(C(F)(F)F)c1)N1CCn2nc(C(=O)N3C4CCC3CNC4)cc2C1` [Example 426], the 50% inhibitory concentration (IC50) is at most 100 nM. `O=C(NC1COC1)c1cc2n(n1)CCCN(C(=O)OCc1cc(C(F)(F)F)cc(C(F)(F)F)c1)C2` [Example 505]: the IC50 is at most 100 nM. `O=C(OCc1cc(C(F)(F)F)cc(C(F)(F)F)c1)N1CCCn2nc(CN3CCCCC3)cc2C1` [Example 291] showed an IC50 of at most 250 nM. Next, `O=C(OCc1cc(C(F)(F)F)cc(C(F)(F)F)c1)N1CCCn2nc(-c3nnn[nH]3)cc2C1` [Example 136, 3,5-Bis(trifluoromethyl)benzyl 2-(1H-tetrazol-5-yl)-7,8-dihydro-4H-pyrazolo[1,5-a][1,4]diazepine-5(6H)-carboxylate]: at most 100 nM; `CNC1CCN(C(=O)c2cc3n(n2)CCCN(C(=O)OCc2cc(Cl)cc(C(F)(F)F)c2)C3)C1` (centres unmarked) [Example 195]: at most 100 nM. The value for `CCOC(=O)c1cc2n(n1)CCN(C(=O)OCc1cc(C(F)(F)F)cc(C(F)(F)F)c1)C2` [Example 403] was at most 100 nM. Next, `O=C(O)c1cc2n(n1)CCCN(C(=O)OCc1cc(Cl)cc(Cl)c1)C2` [Example 7, 5-(((3,5-Dichlorobenzyl)oxy)carbonyl)-5,6,7,8-tetrahydro-4H-pyrazolo[1,5-a][1,4]diazepine-2-carboxylic acid]: at most 100 nM; `CC(C(=O)O)c1cc2n(n1)CCCN(C(=O)OCc1cc(C(F)(F)F)cc(C(F)(F)F)c1)C2` (centres unmarked) [Example 387, 2-(5-(((3,5-bis(Trifluoromethyl)benzyl)oxy)carbonyl)-5,6,7,8-tetrahydro-4H-pyrazolo[1,5-a][1,4]diazepin-2-yl)propanoic acid]: at most 100 nM.

With `O=C(OCc1cc(Cl)cc(C(F)(F)F)c1)N1CCCn2nc(C3CN4CCCC[C@H]4CO3)cc2C1` (mixture of isomers) [Example 253, 3-chloro-5-(trifluoromethyl)benzyl 2-((9aS)-octahydropyrido[2,1-c][1,4]oxazin-3-yl)-7,8-dihydro-4H-pyrazolo[1,5-a][1,4]diazepine-5(6H)-carboxylate], the concentration for half-maximal inhibition (IC50) was at most 100 nM.

As to `CC1(C)CC(Nc2cc3n(n2)CCCN(C(=O)OCc2cc(C(F)(F)F)cc(C(F)(F)F)c2)C3)CCN1` (centres unmarked) [Example 320], the 50% inhibitory concentration (IC50) is at most 100 nM.

Take `CN1CCN(S(=O)(=O)c2cc3n(n2)CCCN(C(=O)OCc2cc(C(F)(F)F)cc(C(F)(F)F)c2)C3)CC1` [Example 308]: the IC50 was at most 100 nM. For the compound `CCC1CNCCN1C(=O)c1cc2n(n1)CCCN(C(=O)OCc1cc(Cl)cc(C(F)(F)F)c1)C2` (centres unmarked) [Example 205], the IC50 was at most 100 nM. The value for `O=C(OCc1cc(Cl)cc(C(F)(F)F)c1)N1CCCn2nc(C3CN4CCC[C@@H]4CO3)cc2C1` (single isomer, unassigned) [Example 252A] was at most 100 nM; that for `CCC1(CC)CNCCN1C(=O)c1cc2n(n1)CCCN(C(=O)OCc1cc(Cl)cc(C(F)(F)F)c1)C2` [Example 231] was at most 100 nM. Next, `O=C(OCc1cc(C(F)(F)F)cc(C(F)(F)F)c1)N1CCCn2nc(CN[C@H]3CC[C@H](C(=O)O)CC3)cc2C1` [Example 289]: at most 250 nM. Next, `CN1CCN(C(=O)c2cc3n(n2)CCCN(C(=O)OCc2cc(Cl)cc(C(F)(F)F)c2)C3)CC1C(F)(F)F` (centres unmarked) [Example 186]: at most 100 nM.
